Experimental findings from publication doi:10.1101/2023.02.25.529946, “Development of Cell Permeable NanoBRET Probes for the Measurement of PLK1 Target Engagement in Live Cells” (bioRxiv, 2023) are described below.

The EC50 is the concentration that produces a half-maximal response. Low values mean higher potency in that assay, high ones lower potency in that assay.

For the test, the target named is T1, PLK1 (Homo sapiens, UniProt P53350).
T1 construct: full-length PLK1, N-terminal NLuc fusion (NLuc-PLK1)
T1 sequence (P53350 whole entry, the tested form may be a part): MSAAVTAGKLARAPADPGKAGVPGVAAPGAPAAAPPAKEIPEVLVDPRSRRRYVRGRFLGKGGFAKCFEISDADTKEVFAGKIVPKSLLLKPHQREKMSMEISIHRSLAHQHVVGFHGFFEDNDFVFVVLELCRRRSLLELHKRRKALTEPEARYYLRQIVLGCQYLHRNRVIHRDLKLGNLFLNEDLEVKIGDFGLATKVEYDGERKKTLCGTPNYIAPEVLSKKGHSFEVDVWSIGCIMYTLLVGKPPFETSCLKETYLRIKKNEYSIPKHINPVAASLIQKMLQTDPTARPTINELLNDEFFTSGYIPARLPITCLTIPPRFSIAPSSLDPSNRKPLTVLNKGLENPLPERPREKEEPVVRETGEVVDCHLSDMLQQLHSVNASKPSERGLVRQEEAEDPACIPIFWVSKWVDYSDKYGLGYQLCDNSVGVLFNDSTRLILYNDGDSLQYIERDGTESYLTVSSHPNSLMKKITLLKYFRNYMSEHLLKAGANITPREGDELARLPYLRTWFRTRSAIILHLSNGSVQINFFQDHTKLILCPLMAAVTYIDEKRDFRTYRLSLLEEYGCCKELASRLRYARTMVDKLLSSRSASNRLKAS
In words: live-cell NanoBRET probe titration with and without excess compound […]. The format is cell-based. Background: Bioluminescence resonance energy transfer reports proximity on the nanometre scale.

Molecule `CC[C@@H]1C(=O)N(C)c2cnc(Nc3ccc(C(=O)NC4CCN(C(=O)CCOCCOCCOCCOCCNC(=O)CCc5ccc6n5[B-](F)(F)[N+]5=C(c7ccc[nH]7)C=CC5=C6)CC4)cc3OC)nc2N1C(C)C` [compound 11, (R)-N-(1-(1-(5,5-difluoro-7-(1H-pyrrol-2-yl)-5H-5^λ,6^λ-dipyrrolo[1,2-c:2',1'-f][1,3,2]diazaborinin-3-yl)-3-oxo-7,10,13,16-tetraoxa-4-azanonadecan-19-oyl)piperidin-4-yl)-4-((7-ethyl-8-isopropyl-5-methyl-6-oxo-5,6,7,8-tetrahydropteridin-2-yl)amino)-3-methoxybenzamide] registered an EC50 of 300 nM. This counts as sub-micromolar.
